The text below walks through data of patent publication US7022481B2, “Methods of using glucan synthase pathway reporter genes to screen for antifungal compounds” (Rosetta Inpharmatics LLC, priority 2002, dated 2006).

Converted amounts (≈) assume the structure as drawn. Like-named read-outs stand apart in the source and are kept apart here.

Common to all, as to assay type: cell-based, S. cerevisiae
For assay [1], the system named is YOL113W (SKM1), YNR066C, YLR121C (YPS3), YKL161C, and YAR050W (FLO1) GFP reporters. Put plainly: liquid high-throughput like 96-well GFP reporter assay, glucan synthase pathway reporters. The note with it: serial 1 to 2 dilutions, ~24 hours at 30 degrees Celsius, five GS reporters. How it is done: The five reporters selected were: YOL113W (SKM1), YNR066C, YLR121C (YPS3), YKL161C, and YAR050W (FLO1). Another reporter, YOR237W (HES1), was selected as a negative control.
1. Reporters transformed into wild-type S. Cerevisiae strain ABY12 were grown on solid Casamino Acids media plates.
2. The cultures from the solid media plates were used to inoculate 50 ml liquid cultures in Casamino Acids media. These liquid cultures were grown overnight at 30 degrees Celsius. The cultures were all grown to a final OD600˜=8 (Table V).
These cultures were then diluted in Casamino Acids media to and OD600=2.
3. The drug-like agents selected for the assay were the GS inhibitors Enfumafungin, Ascosteroside, and Dihydropapulacandin B; along with the Elongation Factor 2 (EF2) inhibitor Sordarin, to be used as a negative control. […]
5. After the 24 hour incubation the 96-well assay plates were imaged in a Molecular Dynamics Fluorimager SI to measure the fluorescence from the GFP reporters. […] Additionally, none of the compounds tested induced increased fluorescence from the reporter for inhibition of sterol biosynthesis, HES1 (FIG. 20). […] Of note here is the fact that the highest concentrations tested were all substantially greater than the measured IC50's for these compounds in the ABY12 strain (Table VI). […]
For orientation: A reporter such as luciferase makes a cellular process visible.

Assay [2] relates to ABY12 strain. Put plainly: growth inhibition (IC values) in the ABY12 strain. The source says:
3. The drug-like agents selected for the assay were the GS inhibitors Enfumafungin, Ascosteroside, and Dihydropapulacandin B; along with the Elongation Factor 2 (EF2) inhibitor Sordarin, to be used as a negative control. These four drugs were all added to the second column of each 96-well assay plate and serially diluted (1 to 2) into Casamino Acids media plus 2% DMSO in columns 3–12, so that column 2 of each plate will contain the highest concentration of each drug and column 12 will contain the lowest. The first column of each plate was used as a “no drug” control, containing only Casamino Acids media plus 2% DMSO. The concentrations for each drug that were added to the wells in column 2 are shown in Table VI (Maximum Concentration Tested) along with the rows of each plate they were added to (Table VI, Rows).
5. After the 24 hour incubation the 96-well assay plates were imaged in a Molecular Dynamics Fluorimager SI to measure the fluorescence from the GFP reporters. […] Additionally, none of the compounds tested induced increased fluorescence from the reporter for inhibition of sterol biosynthesis, HES1 (FIG. 20). […] Of note here is the fact that the highest concentrations tested were all substantially greater than the measured IC50's for these compounds in the ABY12 strain (Table VI). Therefore these strains are capable of reporting on inhibition of GS even at drug concentrations that inhibit cell growth. This is an important characteristic of this assay as the preferred method of high-throughput screening would be to perform the screens at one high concentration for every compound assayed. It has been previously shown that the HES1 reporter strain is capable of performing under such assay conditions in a 384-well formatted high-throughput screen of a combinatorial library (WO 00/58521, PCT published application).

The subject of assay [3] is wild-type S288C strain. The experiment in a line: microbe, parasite or virus in culture. How it is done: First, comprehensive gene expression profiles for S. cerevisiae grown in the presence of known inhibitors of glucan synthase were constructed. Enfumafungin and Ascosteroside were two known glucan synthase inhibitors used in the present invention. Prior to exposing the GRM to these two glucan synthase inhibitors, growth inhibition studies were performed on wild-type S288C strain in order to determine the appropriate concentrations for GRM profiling.

The subject of assay [4] is gene reporters in the GRM (promoter-GFP fusions). The experiment in a line: Genome Reporter Matrix (GRM) reporter gene expression profiling.
Description: Genome Reporter Matrix™ (GRM) technology was used to generate the gene expression profiles that the glucan synthase inhibition treatments induced in the yeast S. cerevisiae. The GRM was used to generate comprehensive gene expression profiles in the yeast S. cerevisiae. The GRM used in the present invention was a matrix of units comprising living S. cerevisiae cells, the cells in each unit containing one S. cerevisiae reporter fusions (GRM construct) representative of essentially every known gene and hypothetical open reading frame (ORF) of S. cerevisiae. The GRM constructs used in the present invention comprised a promoter, 5′ upstream untranslated region and usually the first four amino acids from one of each hypothetical ORF fused to a gene encoding the green fluorescent protein (GFP).
Solutions of test compounds were added directly to the solid agar growth media plates prior to addition of S. cerevisiae strains. The individual strains comprising the GRM were maintained as independent colonies (and cultures) in a 96-well format, in medium selecting for the URA2-containing reporter plasmid. Prior to each experiment, fresh dilutions of the reporter-containing strains were inoculated and grown overnight at 30° C. A Hamilton MicroLab 4200, a multichannel gantry robot equipped with a custom pin tool device capable of dispensing 50 nanoliter volumes in a highly reproducible manner, was used to array the matrix of S. cerevisiae strains in a uniform manner onto solid agar growth media at a density of 1536 reporter strains per 110 cm^2 plate. Fifty nanoliters of S. cerevisiae liquid cultures arrayed onto solid medium by the Hamilton Microlab 4200 results in colony-to-colony signal reproducibility of less than 5% variation. Once arrayed, each plate was grown at 30° C. for 18 hours or at 25° C. for 24 hours.
The level of fluorescence expressed from each reporter gene fusion was determined using a Molecular Dynamics Fluorimager SI. Custom image analysis software was used to quantitate the fluorescence of each colony in the images.
In assay [5] the test system is YOL113W (SKM1) reporter. The experiment in a line: solid plate halo assay, reporter fluorescence. As to conditions: 20 ul of 200 μg/ml and 1 mg/ml on paper disc, 23 hour incubation. The protocol: (§1) This assay is meant to mimic assays where natural product producing strains would be either plated onto a lawn of our ABY12 reporter carrying strains, or an agar overlay containing the ABY12 reporter strain would be placed over a plate containing natural product producing strains, the purpose being identifying strains that are producing molecules that inhibit GS.
(§2) 1. The YOL113W (SKM1) reporter transformed into wild-type S. Cerevisiae strain ABY12 was grown on a solid Casamino Acids media plate.
(§3) 2. The culture from the solid media plate was used to inoculate a 50 ml liquid culture in Casamino Acids media. This liquid culture was grown overnight at 30 degrees Celsius. The culture was grown to a final OD600=10.5. This culture was then diluted in Casamino Acids media to an OD600=1, or 1×10^7 cells per milliliter. Five-hundred microliters of cell culture (5×10^6 cells) was then spread evenly over the surface of each of two 100 mm solid agar-Casamino-acids-media plates to form a lawn of the YOL113W (SKM1) reporter strain on each plate.
(§4) 3. Two 6 mm diameter blank paper discs (BECTON DICKINSON® #231039) were placed on top of the agar surface of each plate evenly spaced apart. […]
(§5) 4. After a 23 hour incubation the assay plates were imaged in a Molecular Dynamics Fluorimager SI to measure the fluorescence from the GFP reporters. […]

For assay [6], the system named is lawn of the YOL113W (SKM1) reporter strain (ABY12). The experiment in a line: solid plate halo assay, growth of lawn. The note with it: 20 ul of 200 μg/ml (low) and 20 ul of 1 mg/ml (high) on paper disc, 23 hour incubation. The protocol:
as §1, §2, §3, §4, §5

Setting [7] is: Saccharomyces cerevisiae, read-out: IC50.
[8] abbreviates: growth inhibition, wild-type S288C strain.

As for `CO[C@H]1[C@@H](O)[C@H](O)[C@H](OC[C@@]23C[C@@H]4[C@H](C)CC[C@H]4[C@@]4(C=O)CC2C=C(C(C)C)[C@@]34C(=O)O)O[C@@H]1C` [Sordarin], the “fluorescence from the GFP reporters versus no drug controls” value in assay [1] was “None of the reporters, however, showed any increase in fluorescence”. Further, in assay [2], the IC25 (usually the concentration at which the effect reaches the 25% level) is 1.1 µg/mL (≈ 2.23 µM) and the concentration for an effect of 75% (IC75) (commonly the concentration needed for an effect of 75%) was found to be 2.5 µg/mL (≈ 5.08 µM). In assay [2] (setting [7]), the IC50 (in general, the midpoint of a concentration-inhibition curve) stood at 1.5 µg/mL (≈ 3.05 µM).
With `C=C(CC[C@H](C)[C@H]1C[C@@H](O)[C@@]2(C(=O)O)C3=C(CC[C@]12C)[C@@]1(C)CC[C@H](O[C@H]2O[C@H](CO)[C@@H](OC)[C@H](O)[C@H]2O)C(=C)[C@@H]1CC3)C(C)C` [Ascosteroside], the IC25 in assay [2] and in assay [3] (setting [8]) was 6.3 µg/mL (≈ 9.74 µM) in each case. The IC50 in assay [2] and in assay [3] (setting [8]) was 19 µg/mL (≈ 29.4 µM) each time. The “effectiveness in growth inhibition assays” value in assay [3] (wild-type S288C strain) is given as “effective”. Also, the “expression response of reporter YKL161C” value in assay [4] (5 μg/ml in 1% DMSO, FIG. 9) is “highly up-regulated”. The “number of gene reporters significantly up- or down-regulated” value in assay [4] (lowest concentration (5.0 μg/ml), p<=0.01, of roughly 6,000 gene reporters in the GRM) was found to be 318.
With `CC(=O)O[C@@H]1C[C@]23C4=CC[C@@]5(C)[C@H](C(=O)O)[C@@](C)([C@H](C)C(C)C)CC[C@]5(C)[C@H]4CC[C@H]2[C@@](C)(COC3O)[C@H]1O[C@@H]1O[C@H](CO)[C@@H](O)[C@H](O)[C@H]1O` (stereo partly shown) [Enfumafungin], the “induction of the YOL113W (SKM1) reporter (fluorescence at edge of halo)” value in assay [5] is recorded as “significantly induced”; in assay [5] (listed as enfumafungin), “upregulating SKM1 reporter”. In addition, the “growth of the lawn around paper disc (halo)” value in assay [6] is “inhibited the growth of the lawn”. The concentration for an effect of 25% (IC25) in assay [2] and in assay [3] (setting [8]) was 0.54 µg/mL (≈ 0.762 µM) in each case. Further, the IC75 in assay [2] and in assay [3] (setting [8]) was 0.9 µg/mL (≈ 1.27 µM) in each case. Also, the 50% inhibitory concentration (IC50) in assay [2] (setting [7]) and in assay [3] (Saccharomyces cerevisiae) was 0.69 µg/mL (≈ 0.973 µM) in each case. For the same compound, the “effectiveness in growth inhibition assays” value in assay [3] (wild-type S288C strain) is reported as “effective”. In addition, the “growth inhibition of the GRM” value in assay [4] (0.60 μg/ml and 0.75 μg/ml) is recorded as “too much growth inhibition”.
In assay [2], Dihydropapulacandin B returned an IC25 of 3.7 µg/mL, an IC50 of 4.4 µg/mL and a concentration for an effect of 75% (IC75) of 5.3 µg/mL.
